From patent US20040157773A1, “Farnesyl protein transferase inhibitors for treating cachexia” (priority 2003, published 2004)

Experiments:
[1] = Body weight loss (cachexia) in nude mice bearing subcutaneous A375.S2 tumors; format: in vivo; conditions: for reduction in weight loss: weight loss day 1 to day 23, corrected for tumor burden, vs vehicle
Text: (§1) A375.S2 human melanoma cells were purchased from the American Type Culture Collection (Rockville, Md.). Cells were maintained in Dulbecco's Modified Eagle's Medium supplemented with pyruvate, nonessential amino acids, 10% fetal calf serum and penicillin-streptomycin.
(§2) Female nu/nu immunodeficient nude mice (42 days old) were purchased from Charles River Laboratories (Wilmington, Mass.). Mice were housed five per cage in microisolator cages placed in laminar flow shelving to maintain sterility. All bedding, food, water and cages were autoclaved. Animals were handled within the sterile confines of a laminar flow cabinet. The mice were otherwise maintained under standard vivarium conditions.
Cells growing as monolayers in T150 tissue culture flasks were detached by trypsinization with 10 ml of 0.05% trypsin plus 0.53 mM EDTA per flask. Tumor cell suspensions were pooled and trypsin was inactivated by the addition of serum containing medium (10 ml per 40 ml of trypsin cell suspension). Cells were collected by centrifugation and resuspended in Hank's Balanced Salt Solution (HBSS) warmed to 37° C. A 1.0 ml portion of cell suspension was added to 20 ml of diluent and counted on a Coulter particle counter. The cell suspensions were recentrifuged and resuspended at a concentration of 1×10^6 cell per 0.10 ml of HBSS. Mice were inoculated with a single subcutaneous injection of 0.10 ml of tumor cell suspension in the inguinal region. Mice were housed five per cage with 15 mice assigned to each treatment group. Mice were tagged by ear punches to allow the monitoring of individual mice during the course of the study. Body weight and tumor size determined from caliper measurements were measured weekly. The caliper measurements of length and width were multiplied to obtain tumor areas. At the end of study, mice were sacrificed by CO2 asphyxiation. Three days after tumor inoculation, the five-day treatment with R115777 was initiated. R115777 was administered once daily by oral gavage in a 20% β-cyclodextrin vehicle as a volume of 0.10 ml of solution per 10 gm body weight. Control groups received the same dosage volume of the 20% β-cyclodextrin vehicle.
R115777 was prepared for oral administration by dissolving the compound first as a 2× concentrated stock in 40% hydroxypropyl β-cyclodextrin in 0.1 N HCl. R115777 was dissolved by stirring vigorously approximately 30 minutes followed by sonication for 10 min. The R115777 solutions were brought to a final concentration by diluting 1:1 with 0.1 N HCl. The final drug solutions were sterile filtered immediately and transferred to sterile tubes. Solutions were stored refrigerated and protected from light during the course of the study and sterility was maintained by opening solutions under sterile laminar flow conditions.
(§3) Analysis of variance, mean values for treatment groups and standard error of the mean for in vivo parameters were calculated using IMSL subroutines on a VAX computer. A value of p<0.05 was considered significant. Weight loss was calculated for each individual animal from day 1 to day 23. Mean body weight loss for each treatment group was calculated and used for statistical analyses.

[2] = test system: A375.S2 human melanoma cells; assay: Tumor growth of subcutaneous A375.S2 xenografts in nude mice; format: in vivo; conditions: oral
Text: as §1, §2
Cells growing as monolayers in T150 tissue culture flasks were detached by trypsinization with 10 ml of 0.05% trypsin plus 0.53 mM EDTA per flask. […] A 1.0 ml portion of cell suspension was added to 20 ml of diluent and counted on a Coulter particle counter. […]
as §3, with “A value of p<0.05 was considered significant.” left out

Cn1cncc1C(N)(c1ccc(Cl)cc1)c1ccc2c(c1)c(-c1cccc(Cl)c1)cc(=O)n2C (single isomer, unassigned; (+)) [R115777, (+)-6-[amino(4-chlorophenyl)(1-methyl-1H-imidazol-5-yl)methyl]-4-(3-chlorophenyl)-1-methyl-2(1H)-quinolinone]
reduction in weight loss ([1]; 50 mg/kg once daily oral gavage, A375.S2 tumor-bearing nude mice): 28%
reduction in weight loss ([1]; 100 mg/kg once daily oral gavage, A375.S2 tumor-bearing nude mice): 45%
reduction in weight loss ([1]; 200 mg/kg once daily oral gavage, A375.S2 tumor-bearing nude mice): 67%
body weight course (weight loss) ([1]; oral, 50-200 mg/kg, body weight over time from day 14 (FIG. 2), A375.S2 tumor-bearing nude mice): appeared to prevent or delay the weight loss in a dose-dependent fashion
body weight loss, statistical result ([1]; oral, 50-200 mg/kg, individual weight loss day 1 to day 23 corrected for tumor burden (FIG. 3), p<0.05 significant): significant dose dependent reduction of body weight loss
reduction of final tumor weight ([2]; highest tested dose, postmortem tumor weight (FIG. 5)): 27%
tumor growth from tumor area measurements ([2]; 50-200 mg/kg, biweekly tumor area measurements (FIG. 1)): minimal reduction in tumor growth
